This assay has as its system GMP as DNA constituent. Nature of the assay: Reactivity with GMP: adduct formation under physiological and patho-physiological conditions. The assay is classed as biochemical. From the text: The reactivity of the compound cis-dichloro-bis(2-ethanolamine)platinum(II) was examined under physiological and patho-physiological conditions (FIG. 2). […] Chem. 39(4): 836-842 (2000); Choi, Sunhee; Mahalingaiah, Shruthi; Delaney, Sarah; Neale, Nathan R.; Masood, Syed “Substitution and Reduction of Platinum(IV) Complexes by a Nucleotide, Guanosine 5′-Monophosphate” Inorg. Chem. 38(8): 1800-1805 (1999); Chen, Yu; Guo, Zijian; Parkinson, John A.; Sadler, Peter J. “Kinetic control of reactions of a sterically hindered platinum picoline anticancer complex with guanosine 5′-monophosphate and glutathione” J. Chem. Soc., Dalton Trans.), 21: 3577-3586 (1998); Bloemink, Marieke J.; Perez, Janice M. J.; Heetebrij, Robert J.; Reedijk, Jan “The new anticancer drug [(2R)-aminomethylpyrrolidine](1,1-cyclobutanedicarboxylato)platinum(II) and its toxic S enantiomer do interact differently with nucleic acids” J. Biol. Inorg. Chem. 4(5): 554-567 (1999).
Similar to Example 8, the reactivity of the compound bis(2-ethanolatoamine-κ^2N,O)platinum(II) (see Example 8 for the synthesis) was examined. In this respect, the proportion of the nucleotide not modified by the active substance was measured.

Turning to `C1C[O][Pt]2([NH]1)[NH]CC[O]2` [(SP-4-2)-[bis(2-aminoethanolato)-κ^2N,O]platinum(II)], the “speed of reaction with the nucleotide (proportion of the nucleotide not modified by the active substance)” value (patho-physiological conditions (pH 6) compared to tissue free of disease (pH 7.4), FIG. 3) is listed as “significantly increased speed”.
With `OCC[NH][Pt]([Cl])([Cl])[NH]CCO` [(SP-4-2)-dichloro[bis(2-hydroxyethylamine)]platinum(II)], the “selectivity of reaction, patho-physiological versus physiological conditions” value (FIG. 2, comparison of left and right diagram) is “Selectivity is therefore present”. For the same compound, the “reactivity: reaction with the biological target (formation of adducts with GMP)” value is, setting by setting: (patho-physiological conditions (FIG. 2, left diagram)) “rapid reaction”; (physiological conditions (FIG. 2, right diagram)) “clearly runs slower”.

Values taken from US20050026896A1, “Platinum(II) and platinum(IV) complexes and their use” (Faustus Forschungs Cie. Translational Cancer Research GmbH, priority 2001, published 2005).
